Each structure is given as a SMILES string. Bounds are passed on as bounds.

In one data set the target is T1, human TGR5 receptor (Homo sapiens, UniProt Q8TDU6).
T1 construct: host or cells: CHO-K1 (hTGR5-CHO)
T1 sequence (Q8TDU6 1-330): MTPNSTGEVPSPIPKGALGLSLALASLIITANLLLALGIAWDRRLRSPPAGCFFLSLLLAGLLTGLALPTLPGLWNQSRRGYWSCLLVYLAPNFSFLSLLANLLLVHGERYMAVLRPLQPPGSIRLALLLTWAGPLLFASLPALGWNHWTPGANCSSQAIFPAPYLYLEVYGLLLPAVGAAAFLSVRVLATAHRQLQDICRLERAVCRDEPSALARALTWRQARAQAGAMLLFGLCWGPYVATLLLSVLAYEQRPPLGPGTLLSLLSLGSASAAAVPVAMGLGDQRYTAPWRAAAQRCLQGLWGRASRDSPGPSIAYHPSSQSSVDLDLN
Briefly: Human TGR5 cAMP production assay (hTGR5-CHO cells, DiscoveRx cAMP XS+ kit). Type of data set: cell-based. The conditions noted are these: luminescent cAMP assay, read-out: Human TGR5 Lum. cAMP Activity (EC50). An outline of the steps:
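CHO-K1 cells stably expressing hTGR5, in PBS with IBMX and cAMP antibody, treated with half-log compound dilutions for 1 h at room temperature. cAMP measured by enzyme-fragment complementation luminescence after overnight detection; EC50 values reported.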
On the technique in general: Cyclic AMP is a second messenger, typically raised through Gs and lowered through Gi signalling.

The nature of data set [1]: Pharmacokinetic profile in mice after oral gavage. Type of data set: in vivo, mouse. The conditions noted are these: mouse; fasted male Hilltop mice, 10 mg/kg oral gavage, plasma; read-out: Cmax. The method, boiled down:
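Fasted 8-week male Hilltop mice given 10 mg/kg orally in 20% PEG400/80% 0.5% CMC + 0.25% Tween-80. EDTA plasma sampled 0-4 h, measured by LC-MS/MS (MRM, positive ion); Cmax and AUC derived non-compartmentally, values being means of three mice.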

The term EC50 denotes the concentration giving half of the maximal effect. As a reminder, the Cmax is the highest concentration seen after dosing. For `CN(C)CCC1CCN(c2cc(N3CCC[C@H]3C(=O)NCCc3ccc(C(F)(F)F)cc3)nc(C(F)(F)F)n2)CC1` [Compound 5], the EC50 on human TGR5 receptor was under 0.1 µM. In addition, the Cmax in data set [1] was 0.338 µg/mL.

Regarding `O=C(O)CCCC1CCN(c2cc(N3CCC[C@H]3C(=O)NCCc3ccc(C(F)(F)F)cc3)nc(C(F)(F)F)n2)CC1` [Compound 9], on human TGR5 receptor, the EC50 is under 0.1 µM. In data set [1], the Cmax turned out to be 0.048 µg/mL.

For the compound `N#Cc1ccc(CCNC(=O)[C@@H]2CCCN2c2cc(N3CCC(CCO)CC3)nc(C(F)(F)F)n2)cc1` [Compound 22], the EC50 at human TGR5 receptor is under 0.1 µM. In data set [1], the Cmax was determined as 0.171 µg/mL.

In the case of `COCC1CCN(c2cc(N3CCC[C@H]3C(=O)NCCc3ccc(C#N)cc3)nc(C(F)(F)F)n2)CC1` [Compound 24], the EC50 on human TGR5 receptor was under 0.1 µM. Also, the Cmax in data set [1] was found to be 0.97 µg/mL.

As to `N#Cc1ccc(CCNC(=O)[C@@H]2CCCN2c2cc(N3CCC(CCC(=O)O)CC3)nc(C(F)(F)F)n2)cc1` [Compound 28], the EC50 at human TGR5 receptor was 0.1 to 0.999 µM. In addition, the Cmax in data set [1] came to 0.075 µg/mL.

As for `N#Cc1ccc(CCNC(=O)[C@@H]2CCCN2c2cc(N3CCC(CCCC(=O)O)CC3)nc(C(F)(F)F)n2)cc1` [Compound 29], at human TGR5 receptor, the EC50 is under 0.1 µM. Moreover, the Cmax in data set [1] worked out at 0.055 µg/mL.

For the compound `N#CCCN1CCN(c2cc(N3CCC[C@H]3C(=O)NCCc3ccc(C#N)cc3)nc(C(F)(F)F)n2)CC1` [Compound 32], the EC50 on human TGR5 receptor was under 0.1 µM. The Cmax in data set [1] is 1.35 µg/mL.

Regarding `COc1cc(C(F)(F)F)ccc1CCNC(=O)[C@@H]1CCCN1c1cc(N2CCC(CCCC(=O)O)CC2)nc(C(F)(F)F)n1` [Compound 34], the EC50 on human TGR5 receptor is under 0.1 µM. Further, in data set [1], the Cmax stood at 0.031 µg/mL.

For the compound `N#Cc1ccc(CCNC(=O)[C@@H]2CCCN2c2cc(N3CCC(CCN)CC3)nc(C(F)(F)F)n2)cc1` [Compound 50, (S)-1-(6-(4-(2-aminoethyl)piperidin-1-yl)-2-(trifluoromethyl)pyrimidin-4-yl)-N-(4-cyanophenethyl)pyrrolidine-2-carboxamide], the EC50 at human TGR5 receptor is under 0.1 µM. The Cmax in data set [1] worked out at 0.214 µg/mL.

On to `N#Cc1ccc(CCNC(=O)[C@@H]2CCCN2c2cc(N3CCC(CCC(=O)NCCS(=O)(=O)O)CC3)nc(C(F)(F)F)n2)cc1` [Compound 56, (S)-2-(3-(1-(6-(2-((4-cyanophenethyl)carbamoyl)pyrrolidin-1-yl)-2-(trifluoromethyl)pyrimidin-4-yl)piperidin-4-yl)propanamido)ethanesulfonic acid], for which the EC50 on human TGR5 receptor is under 0.1 µM. The highest concentration (Cmax) in data set [1] stood at 0.014 µg/mL.

With `COc1cc(C(F)(F)F)ccc1CCNC(=O)[C@@H]1CCCN1c1cc(N2CCC(CCCC(=O)NCCS(=O)(=O)O)CC2)nc(C(F)(F)F)n1` [Compound 57, (S)-2-(4-(1-(6-(2-((2-methoxy-4-(trifluoromethyl)phenethyl)carbamoyl)-pyrrolidin-1-yl)-2-(trifluoromethyl)-pyrimidin-4-yl)piperidin-4-yl)butanamido)ethanesulfonic acid], on human TGR5 receptor, the EC50 was under 0.1 µM. In data set [1], the Cmax is 0.013 µg/mL.

`O=C(CCCC1CCN(c2cc(N3CCC[C@H]3C(=O)NCCc3ccc(C(F)(F)F)cc3)nc(C(F)(F)F)n2)CC1)NCCS(=O)(=O)O` [Compound 58, (S)-2-(4-(1-(2-(trifluoromethyl)-6-(2-((4-(trifluoromethyl)phenethyl)-carbamoyl)-pyrrolidin-1-yl)-pyrimidin-4-yl)piperidin-4-yl)butanamido)ethanesulfonic acid]: the EC50 on human TGR5 receptor is under 0.1 µM. Also, the Cmax in data set [1] worked out at 0.029 µg/mL.

Consider `NS(=O)(=O)CCNC(=O)CCCC1CCN(c2cc(N3CCC[C@H]3C(=O)NCCc3ccc(C(F)(F)F)cc3)nc(C(F)(F)F)n2)CC1` [Compound 59, (S)-1-(6-(4-(4-oxo-4-((2-sulfamoylethyl)amino)butyl)piperidin-1-yl)-2-(trifluoromethyl)pyrimidin-4-yl)-N-(4-(trifluoromethyl)phenethyl)-pyrrolidine-2-carboxamide], for which, at human TGR5 receptor, the EC50 was under 0.1 µM. Also, the Cmax in data set [1] was 0.043 µg/mL.

On to `O=C(CCCC1CCN(c2cc(N3CCC[C@H]3C(=O)NCCc3ccc(C(F)(F)F)cc3)nc(C(F)(F)F)n2)CC1)NCCCS(=O)(=O)O` [Compound 60, (S)-3-(4-(1-(2-(trifluoromethyl)-6-(2-((4-(trifluoromethyl)phenethyl)carbamoyl)pyrrolidin-1-yl)pyrimidin-4-yl)piperidin-4-yl)butanamido)propane-1-sulfonic acid], for which the EC50 on human TGR5 receptor is under 0.1 µM. Further, the Cmax in data set [1] is 0.0043 µg/mL.

As to `N#Cc1ccc(CCNC(=O)[C@@H]2CCCN2c2cc(N3CCC(CCCC(=O)NCCS(=O)(=O)O)CC3)nc(C(F)(F)F)n2)cc1` [Compound 61, (S)-2-(4-(1-(6-(2-((4-cyanophenethyl)carbamoyl)pyrrolidin-1-yl)-2-(trifluoromethyl)pyrimidin-4-yl)-piperidin-4-yl)butanamido)ethanesulfonic acid], the 50% effective concentration (EC50) on human TGR5 receptor is under 0.1 µM. Also, the Cmax in data set [1] amounted to 0.0033 µg/mL.

In the case of `N#Cc1ccc(CCNC(=O)[C@@H]2CCCN2c2cc(N3CCC(CCCC(=O)NCCS(N)(=O)=O)CC3)nc(C(F)(F)F)n2)cc1` [Compound 62, (S)-N-(4-cyanophenethyl)-1-(6-(4-(4-oxo-4-((2-sulfamoylethyl)amino)butyl)piperidin-1-yl)-2-(trifluoromethyl)pyrimidin-4-yl)pyrrolidine-2-carboxamide], on human TGR5 receptor, the EC50 is under 0.1 µM. Also, the Cmax in data set [1] was found to be 0.033 µg/mL.

For `N#Cc1ccc(CCNC(=O)[C@@H]2CCCN2c2cc(N3CCC(CCCC(=O)NCCCS(=O)(=O)O)CC3)nc(C(F)(F)F)n2)cc1` [Compound 63, (S)-3-(4-(1-(6-(2-((4-cyanophenethyl)carbamoyl)pyrrolidin-1-yl)-2-(trifluoromethyl)pyrimidin-4-yl)-piperidin-4-yl)butanamido)propane-1-sulfonic acid], the EC50 on human TGR5 receptor was under 0.1 µM. The maximum concentration (Cmax) in data set [1] was 0.0013 µg/mL.

Regarding `N#Cc1ccc(CCNC(=O)[C@@H]2CCCN2c2cc(N3CCC(CCCC(=O)NCC(=O)O)CC3)nc(C(F)(F)F)n2)cc1` [Compound 103, (S)-2-(4-(1-(6-(2-((4-cyanophenethyl)carbamoyl)pyrrolidin-1-yl)-2-(trifluoromethyl)pyrimidin-4-yl)piperidin-4-yl)butanamido)acetic acid], the EC50 at human TGR5 receptor was under 0.1 µM. For the same compound, in data set [1], the Cmax worked out at 0.0093 µg/mL.

Take `N#Cc1ccc(CCNC(=O)[C@@H]2CCCN2c2cc(N3CCC(CCCC(=O)NCCC(=O)O)CC3)nc(C(F)(F)F)n2)cc1` [Compound 104, (S)-3-(4-(1-(6-(2-((4-cyanophenethyl)carbamoyl)pyrrolidin-1-yl)-2-(trifluoromethyl)pyrimidin-4-yl)-piperidin-4-yl)butanamido)-propanoic acid]: the EC50 at human TGR5 receptor is under 0.1 µM. Moreover, in data set [1], the Cmax came out at 0.0089 µg/mL.

As to `N#Cc1ccc(CCNC(=O)[C@@H]2CCCN2c2cc(N3CCC(CCNC(=O)NCCS(=O)(=O)NCC(=O)O)CC3)nc(C(F)(F)F)n2)cc1` [Compound 107], at human TGR5 receptor, the EC50 was under 0.1 µM. For the same compound, in data set [1], the Cmax was 0.0004 µg/mL.

Turning to `N#Cc1ccc(CCNC(=O)[C@@H]2CCCN2c2cc(N3CCC(CCCC(=O)NCCC(=O)NC(CO)(CO)CO)CC3)nc(C(F)(F)F)n2)cc1` [Compound 109, (S)—N-(4-cyanophenethyl)-1-(6-(4-(4-((3-((1,3-dihydroxy-2-(hydroxymethyl)propan-2-yl)amino)-3-oxopropyl)amino)-4-oxobutyl)piperidin-1-yl)-2-(trifluoromethyl)-pyrimidin-4-yl)pyrrolidine-2-carboxamide], the concentration for a half-maximal effect (EC50) at human TGR5 receptor was under 0.1 µM. Besides, the Cmax in data set [1] amounted to 0.0032 µg/mL.

On to `N#Cc1ccc(CCNC(=O)[C@@H]2CCCN2c2cc(N3CCC(CCCC(=O)NCCNc4ncc(C(=O)NCCS(=O)(=O)O)cn4)CC3)nc(C(F)(F)F)n2)cc1` [Compound 112, (S)-2-(2-((2-(4-(1-(6-(2-((4-cyanophenethyl)carbamoyl)pyrrolidin-1-yl)-2-(trifluoromethyl)pyrimidin-4-yl)piperidin-4-yl)butanamido)ethyl)amino)-pyrimidine-5-carboxamido)ethanesulfonic acid], for which the EC50 at human TGR5 receptor is under 0.1 µM. Besides, in data set [1], the Cmax is 0.0011 µg/mL.

In the case of `N#Cc1ccc(CCNC(=O)[C@@H]2CCCN2c2cc(N3CCC(CCNC(=O)NCCC(=O)NCCS(=O)(=O)O)CC3)nc(C(F)(F)F)n2)cc1` [Compound 113, (S)-2-(3-(3-(2-(1-(6-(2-((4-cyanophenethyl)carbamoyl)pyrrolidin-1-yl)-2-(trifluromethyl)pyrimidin-4-yl)piperidin-4-yl)ethyl)ureido)-propanamido)-ethanesulfonic acid], the EC50 at human TGR5 receptor was under 0.1 µM. For the same compound, the Cmax in data set [1] was found to be 0.00013 µg/mL.

Take `O=C(O)CNS(=O)(=O)CCNC(=O)CCCC1CCN(c2cc(N3CCC[C@H]3C(=O)NCCc3ccc(C(F)(F)F)cc3)nc(C(F)(F)F)n2)CC1` [Compound 114, (S)-2-(2-(4-(1-(2-(trifluoromethyl)-6-(2-((4-(trifluoromethyl)phenethyl)-carbamoyl)-pyrrolidin-1-yl)pyrimidin-4-yl)piperidin-4-yl)butanamido)ethyl-sulfonamido)acetic acid]: the EC50 on human TGR5 receptor is under 0.1 µM. Besides, the highest concentration (Cmax) in data set [1] amounted to 0.0048 µg/mL.
